Experimental data taken from patent US5326882A, “Chemiluminescent 3-(substituted Adamant-2'-Ylidene) 1,2-dioxetanes” (Tropix, Inc., priority 1992, dated 1994).

Key:
[1] = target: alkaline phosphatase (Bos taurus, UniProt P19111); assay: Chemiluminescent signal and signal:background with enhancer polymers (Example XVII); format: biochemical
Method: Four sets of three tubes each, each tube in each set containing 450 μl of a 0.4 mM aqueous solution of one of the four 1,2-dioxetanes being compared in 0.1M diethanolamine containing 1 mM magnesium chloride, 0.02% sodium azide and 0.1% of the enhancer polymer, pH 10.0 (substrate buffer) were prepared and the background signal from each tube measured using a Berthold LB 952T luminometer (Berthold Instruments; Wildbad, Federal Republic of Germany).
Next, 50 μl of an aqueous solution, 2.83×10^-12 M of alkaline phosphatase in 0.1M diethanolamine containing 1 mM magnesium chloride, 0.02% sodium azide, pH 10.0, (final enzyme concentration 2.83×10^-13 M) was added to each tube and the chemiluminescent signals were measured in the luminometer at 5 and 20 minutes. The intensity of the chemiluminescent signals and the signal: background ratios obtained for each of the four 1,2-dioxetanes in the presence of the enhancer polymers are shown in Table III below.
The enhancer polymers used, and the symbols for such polymers used in Table III, were the following: […]

[2] = target: T1, biotinylated pBR322-35mer detected with Avidix-AP (Bos taurus, UniProt P19111); assay: Half-time to maximum chemiluminescence, biotinylated DNA on membranes (Example XXVIII); details: 12.5 pg DNA, […] dioxetane in 0.1 M DEA, pH 10.0
T1 construct: purchased Tropix, Inc
Method: The performance of AMPPD and Cl-AMPPD on a nylon membrane was compared as follows: 12.5 picograms of biotinylated-pBR322-(35 mer) in 1 μL was spotted onto dry nylon membrane and crosslinked to the membrane with UV light. The membrane subsequently wetted with 1×SSC buffer, incubated with 0.2% casein, 0.1% Tween-20 in phosphate buffered saline (PBS) for 1 hour at room temperature, washed 4 times with 0.3% Tween-20 in PBS, washed twice in Substrate Buffer (0.1 M diethanolamine, 1 mM MgCl2, pH 10.0), and incubated for 5 minutes in 0.25 mM dioxetane in Substrate Buffer. In this fashion, two membranes: one incubated with AMPPD and the second with Cl-AMPPD, were generated. The membranes were then sealed in plastic, attached to the outside of a 12×75 mm glass test tube, and inserted into Turner Model 20-E luminometer equipped with a side-mounted photomultiplier detector and thermally equilibrated to 30° C. The chemiluminescence intensity was then monitored for 20-24 hours.
The half-times to the maximum chemiluminescence intensity obtained with AMPPD and Cl-AMPPD on PVDF and nylon membranes were calculated from data collected as described in Example XXVII, for the nylon membrane. For PVDF membrane, the revised protocol included the second Substrate Buffer wash followed by the membrane incubation for 5 minutes at room temperature in the Tropix NitroBlock™ reagent and a subsequent wash with Substrate Buffer prior to the dioxetane substrates addition. The half-times to the maximum chemiluminescent signal were calculated from the a plot of the logarithm (maximum chnemiluminescent signal minus signal at each time point) as a function of time and is shown in Table 9.
12.5 pg of biotinylated pBR322-35mer was detected with Avidix-AP and 0.24 mM dioxetane in 0.1 M DEA, pH 10.0.

Chain of alkaline phosphatase (P19111 20-506 limits assumed): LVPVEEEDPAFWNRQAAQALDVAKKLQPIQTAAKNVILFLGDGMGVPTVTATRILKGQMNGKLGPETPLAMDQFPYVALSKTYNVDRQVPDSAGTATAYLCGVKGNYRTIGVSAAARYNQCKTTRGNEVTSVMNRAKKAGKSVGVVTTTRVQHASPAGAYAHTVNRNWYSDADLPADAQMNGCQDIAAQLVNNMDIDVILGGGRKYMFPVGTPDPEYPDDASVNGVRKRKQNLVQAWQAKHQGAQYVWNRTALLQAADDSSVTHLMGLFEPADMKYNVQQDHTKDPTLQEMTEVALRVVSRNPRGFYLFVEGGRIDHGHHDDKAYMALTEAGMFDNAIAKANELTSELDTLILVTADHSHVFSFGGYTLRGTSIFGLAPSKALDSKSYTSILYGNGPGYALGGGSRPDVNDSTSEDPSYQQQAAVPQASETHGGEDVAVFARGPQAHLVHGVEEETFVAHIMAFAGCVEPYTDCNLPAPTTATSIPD
T1 sequence (P19111 20-506 limits assumed): as above

Structure (SMILES): COC1(c2cccc(OP(=O)(O)O)c2)OOC12C1CC3CC2CC(Cl)(C3)C1 (centres unmarked) [Cl-AMPPD, disodium 3-(4-methoxyspiro-[1,2-dioxetane-3,2'-(5'-chloro)tricyclo[3.3.1.1^3,7]decan]-4-yl) phenyl phosphate]
- S/N ([1]; polymer BAEDM, 5 min): 102.2
- SIGNAL ([1]; polymer BAEDM, 5 min): 9086.9
- S/N ([1]; polymer BAEDM, 20 min): 193.3
- SIGNAL ([1]; polymer BAEDM, 20 min): 17185.4
- S/N ([1]; polymer BAEDM, time 0): 1.0
- SIGNAL ([1]; polymer BAEDM, time 0 (background, before enzyme)): 88.9
- S/N ([1]; polymer DAA TMQ, 5 min): 125.1
- SIGNAL ([1]; polymer DAA TMQ, 5 min): 10328.7
- S/N ([1]; polymer DAA TMQ, 20 min): 159.9
- SIGNAL ([1]; polymer DAA TMQ, 20 min): 13204.2
- S/N ([1]; polymer DAA TMQ, time 0): 1.0
- SIGNAL ([1]; polymer DAA TMQ, time 0 (background, before enzyme)): 82.6
- S/N ([1]; polymer DMQ TEQ, 5 min): 514.6
- SIGNAL ([1]; polymer DMQ TEQ, 5 min): 39712.8
- S/N ([1]; polymer DMQ TEQ, 20 min): 747.2
- SIGNAL ([1]; polymer DMQ TEQ, 20 min): 57658.0
- S/N ([1]; polymer DMQ TEQ, time 0): 1.0
- SIGNAL ([1]; polymer DMQ TEQ, time 0 (background, before enzyme)): 77.2
- SIGNAL ([1]; polymer EMERALD (sapphire and fluorescein), time 0 (background, before enzyme)): 3434.0
- S/N ([1]; polymer EMERALD, 5 min): 583.2
- SIGNAL ([1]; polymer EMERALD, 5 min): 400510.8
- S/N ([1]; polymer EMERALD, 20 min): 964.0
- SIGNAL ([1]; polymer EMERALD, 20 min): 662054.4
- S/N ([1]; polymer EMERALD, time 0): 1.0
- S/N ([1]; polymer MPB, 5 min): 257.8
- SIGNAL ([1]; polymer MPB, 5 min): 22170.5
- S/N ([1]; polymer MPB, 20 min): 306.5
- SIGNAL ([1]; polymer MPB, 20 min): 29133.9
- S/N ([1]; polymer MPB, time 0): 1.0
- SIGNAL ([1]; polymer MPB, time 0 (background, before enzyme)): 86.0
- S/N ([1]; polymer NONE, 5 min): 47.9
- SIGNAL ([1]; polymer NONE, 5 min, enzyme 2.83×10^-13 M): 4083.6
- S/N ([1]; polymer NONE, 20 min): 52.3
- SIGNAL ([1]; polymer NONE, 20 min, enzyme 2.83×10^-13 M): 4460.9
- S/N ([1]; polymer NONE, time 0): 1.0
- SIGNAL ([1]; polymer NONE, time 0 (background, before enzyme)): 85.3
- S/N ([1]; polymer S/TMQ(1:2), 5 min): 46.7
- SIGNAL ([1]; polymer S/TMQ(1:2), 5 min): 3121.4
- S/N ([1]; polymer S/TMQ(1:2), 20 min): 100.2
- SIGNAL ([1]; polymer S/TMQ(1:2), 20 min): 6696.9
- S/N ([1]; polymer S/TMQ(1:2), time 0): 1.0
- SIGNAL ([1]; polymer S/TMQ(1:2), time 0 (background, before enzyme)): 66.8
- S/N ([1]; polymer S/TMQ(1:4), 5 min): 93.9
- SIGNAL ([1]; polymer S/TMQ(1:4), 5 min): 5631.2
- S/N ([1]; polymer S/TMQ(1:4), 20 min): 165.0
- SIGNAL ([1]; polymer S/TMQ(1:4), 20 min): 9957.4
- S/N ([1]; polymer S/TMQ(1:4), time 0): 1.0
- SIGNAL ([1]; polymer S/TMQ(1:4), time 0 (background, before enzyme)): 60.0
- SIGNAL ([1]; polymer SAPPHIRE (BDMQ), time 0 (background, before enzyme)): 296.0
- S/N ([1]; polymer SAPPHIRE, 5 min): 371.6
- SIGNAL ([1]; polymer SAPPHIRE, 5 min): 51584.5
- S/N ([1]; polymer SAPPHIRE, 20 min): 505.4
- SIGNAL ([1]; polymer SAPPHIRE, 20 min): 70161.6
- S/N ([1]; polymer SAPPHIRE, time 0): 1.0
- SIGNAL ([1]; polymer TBQ-FLUOR (TBQ and fluorescein), time 0 (background, before enzyme)): 5882.7
- S/N ([1]; polymer TBQ-FLUOR, 5 min): 839.4
- SIGNAL ([1]; polymer TBQ-FLUOR, 5 min): 987572.0
- S/N ([1]; polymer TBQ-FLUOR, 20 min): 1280.0
- SIGNAL ([1]; polymer TBQ-FLUOR, 20 min): 1505971.2
- S/N ([1]; polymer TBQ-FLUOR, time 0): 1.0
- S/N ([1]; polymer TBQ, 5 min): 1249.6
- SIGNAL ([1]; polymer TBQ, 5 min): 148394.6
- S/N ([1]; polymer TBQ, 20 min): 1763.9
- SIGNAL ([1]; polymer TBQ, 20 min): 209466.8
- S/N ([1]; polymer TBQ, time 0): 1.0
- SIGNAL ([1]; polymer TBQ, time 0 (background, before enzyme)): 118.8
- S/N ([1]; polymer TEQ, 5 min): 397.0
- SIGNAL ([1]; polymer TEQ, 5 min): 26551.0
- S/N ([1]; polymer TEQ, 20 min): 513.5
- SIGNAL ([1]; polymer TEQ, 20 min): 34467.2
- S/N ([1]; polymer TEQ, time 0): 1.0
- SIGNAL ([1]; polymer TEQ, time 0 (background, before enzyme)): 67.1
- S/N ([1]; polymer TMQ, 5 min): 165.0
- SIGNAL ([1]; polymer TMQ, 5 min): 9941.0
- S/N ([1]; polymer TMQ, 20 min): 226.4
- SIGNAL ([1]; polymer TMQ, 20 min): 13640.5
- S/N ([1]; polymer TMQ, time 0): 1.0
- SIGNAL ([1]; polymer TMQ, time 0 (background, before enzyme)): 50.3
- HALF-TIME TO MAXIMUM CHEMILUMINESCENCE ([2]; Nylon membrane): 47.48 min
- HALF-TIME TO MAXIMUM CHEMILUMINESCENCE ([2]; PVDF membrane treated with NitroBlock): 14.20 min
